Laboratory results reported in US9999626B2, “Mineral amino-acid complexes of active agents” (Thetis Pharmaceuticals LLC, priority 2014, dated 2018).

What was measured:
[1] = set-up: species or system rats; settings: rat, in vivo, po
Text: The results of a single dose, oral pharmacokinetic study in rats for a compound of Formula III (designated TP-252, Mg-Lys2-EPA2) are shown in Table 3 below. One of the parameters shown in […] is the area under the curve (AUC), which is the integral of a plot of concentration of drug in blood plasma against time. The AUC is proportional to the total amount of the active pharmaceutical agent (API) that reaches the blood circulation. In this example, the API (or analyte) is EPA. AUC and Cmax are given for the compound of Formula III, EPA free fatty acid (EPA FFA), and EPA ethyl ester (EPA EE). EPA ethyl ester is the FDA-approved form of EPA.

[2] = Physical Stability Study (proton NMR after storage exposed to air); assay type: physicochemical; settings: room temperature
Text: FIG. 1: […] NMR spectrum of magnesium bis-lysinate bis-EPA taken on the day the compound was synthesized (upper trace) and 60 days later (lower trace) with the compound having been exposed to air at room temperature for the entire 60-day period.
Since the compounds of Formula IA and IB, and the compositions comprising same or mixtures of same, described herein are solids (not oils) and they are very stable against oxidative degradation of the fatty acid component, particularly when compared to the free fatty acid or fatty acid ester forms of the fatty acids, which are highly susceptible to oxidative degradation in their liquid forms and consequently tend to degrade when exposed to air or humidity. […] This is evidenced, for example by no significant change in physical properties, such as flow characteristics, or in chemical properties, as measured by NMR spectroscopy, following days of storage in an open vial at room temperature and standard humidity, for example following from about 7 to 14 days or up to 30, up to 60, or up to 90 days of storage.
The compounds of the invention are remarkably stable compared to omega-3 polyunsaturated free fatty acids, which typically show evidence of oxidative degradation with hours of exposure to atmospheric oxygen. […]

CC/C=C\C/C=C\C/C=C\C/C=C\C/C=C\CCCC(=O)O.CC/C=C\C/C=C\C/C=C\C/C=C\C/C=C\CCCC(=O)O.NCCCC[C@H](N)C(=O)[O-].NCCCC[C@H](N)C(=O)[O-].[Mg+2] [TP-252, Magnesium Bis-Lysinate Bis-EPA Dihydrate]
EPA delivered to the blood plasma compared with equivalent doses of EPA free fatty acid or EPA ethyl ester [1]: significantly more EPA | chemically stable (no evidence of oxidation or degradation by proton NMR) [2]: at least 60 days
